Common to all, as to type: biochemical
In one assay the target is T1, human TOR (Homo sapiens, UniProt P42345).
T1 construct: FLAG
The assay can be described thus: mTOR enzyme assay (DELFIA, His6-S6K substrate).

Another assay concerns the target PI3K-alpha (Homo sapiens, UniProt P42336). In words: PI3K-alpha fluorescence polarization assay.
For a further assay, the target named is PI3K-gamma (Homo sapiens, UniProt P48736). The assay can be described thus: PI3K-gamma fluorescence polarization assay. The note with it: PI3Kγ Avg. IC50. The essentials:
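FP displacement read-out: 100 nM GST-GRP1 PH domain plus 5 nM BODIPY-TMR-IP4 added after EDTA stop. Preceding kinase step: 5 ng enzyme, diC8-PI(4,5)P2 2.5 μM, ATP 25 μM, MgCl2 2.5 mM, HEPES 5 mM pH 7, one hour, 25° C.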

Where [1] appears, read: read-out: mTOR Kinase Avg. IC50.

Where two headings read alike, the source gives them in different places. Where only a bound is given, the exact number is not on record here.

PI3K-gamma, sequence (P48736 whole entry, species assumed, the tested form may be a part): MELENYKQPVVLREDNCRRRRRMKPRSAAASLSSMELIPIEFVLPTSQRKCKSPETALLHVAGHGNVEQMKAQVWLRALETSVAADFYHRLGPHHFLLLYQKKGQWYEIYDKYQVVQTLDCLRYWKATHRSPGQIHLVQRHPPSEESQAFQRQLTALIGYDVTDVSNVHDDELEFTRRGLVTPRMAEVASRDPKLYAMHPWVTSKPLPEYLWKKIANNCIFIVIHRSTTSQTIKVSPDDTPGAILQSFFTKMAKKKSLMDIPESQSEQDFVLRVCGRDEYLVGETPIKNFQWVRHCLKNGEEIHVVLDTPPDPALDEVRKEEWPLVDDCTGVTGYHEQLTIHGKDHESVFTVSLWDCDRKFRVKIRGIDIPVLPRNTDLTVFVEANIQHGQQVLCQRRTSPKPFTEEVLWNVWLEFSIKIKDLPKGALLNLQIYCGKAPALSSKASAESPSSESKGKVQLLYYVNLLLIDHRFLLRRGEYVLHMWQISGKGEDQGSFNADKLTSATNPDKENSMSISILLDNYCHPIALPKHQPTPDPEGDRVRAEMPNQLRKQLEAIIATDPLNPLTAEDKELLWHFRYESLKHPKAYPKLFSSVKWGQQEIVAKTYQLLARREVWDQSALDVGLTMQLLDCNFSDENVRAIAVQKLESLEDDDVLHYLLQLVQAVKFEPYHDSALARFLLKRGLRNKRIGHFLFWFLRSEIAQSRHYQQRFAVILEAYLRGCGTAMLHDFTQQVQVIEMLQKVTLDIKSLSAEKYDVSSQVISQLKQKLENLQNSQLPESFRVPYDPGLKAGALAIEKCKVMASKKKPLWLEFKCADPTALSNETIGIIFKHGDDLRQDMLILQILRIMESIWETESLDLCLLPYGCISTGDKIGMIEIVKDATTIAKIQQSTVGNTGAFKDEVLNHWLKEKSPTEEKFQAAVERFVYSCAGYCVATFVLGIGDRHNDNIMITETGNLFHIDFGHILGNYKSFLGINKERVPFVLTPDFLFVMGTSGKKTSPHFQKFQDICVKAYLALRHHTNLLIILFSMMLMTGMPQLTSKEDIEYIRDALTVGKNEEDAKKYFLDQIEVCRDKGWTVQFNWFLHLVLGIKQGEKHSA
PI3K-alpha, sequence (P42336 whole entry, species assumed): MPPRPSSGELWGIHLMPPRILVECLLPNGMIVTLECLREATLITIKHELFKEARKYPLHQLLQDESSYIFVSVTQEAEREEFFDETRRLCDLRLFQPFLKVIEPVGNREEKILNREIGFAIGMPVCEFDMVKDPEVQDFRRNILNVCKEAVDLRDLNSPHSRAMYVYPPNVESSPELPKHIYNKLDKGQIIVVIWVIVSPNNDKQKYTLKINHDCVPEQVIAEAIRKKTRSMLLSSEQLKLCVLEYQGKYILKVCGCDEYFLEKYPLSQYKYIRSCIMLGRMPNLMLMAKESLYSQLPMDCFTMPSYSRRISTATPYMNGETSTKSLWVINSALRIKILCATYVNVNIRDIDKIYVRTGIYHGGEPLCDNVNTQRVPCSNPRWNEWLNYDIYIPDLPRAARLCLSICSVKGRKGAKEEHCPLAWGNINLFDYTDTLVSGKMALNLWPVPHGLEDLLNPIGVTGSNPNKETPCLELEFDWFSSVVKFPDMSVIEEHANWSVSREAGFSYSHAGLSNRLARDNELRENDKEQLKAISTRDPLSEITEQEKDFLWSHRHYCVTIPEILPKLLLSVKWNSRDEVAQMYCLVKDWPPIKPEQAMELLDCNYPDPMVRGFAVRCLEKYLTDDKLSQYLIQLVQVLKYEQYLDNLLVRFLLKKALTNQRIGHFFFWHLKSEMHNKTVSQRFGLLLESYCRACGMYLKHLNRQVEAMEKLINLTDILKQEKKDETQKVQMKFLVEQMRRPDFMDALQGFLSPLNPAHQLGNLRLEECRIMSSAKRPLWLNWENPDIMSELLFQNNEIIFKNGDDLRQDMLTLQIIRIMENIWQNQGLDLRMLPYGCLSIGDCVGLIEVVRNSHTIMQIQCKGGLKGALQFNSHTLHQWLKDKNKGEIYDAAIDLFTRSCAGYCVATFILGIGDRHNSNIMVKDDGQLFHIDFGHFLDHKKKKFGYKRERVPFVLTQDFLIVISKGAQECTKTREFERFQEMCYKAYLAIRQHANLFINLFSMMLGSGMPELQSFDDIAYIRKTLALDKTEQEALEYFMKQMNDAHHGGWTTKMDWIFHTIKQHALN
PI3K-alpha, sequence (P27986 whole entry partner, species assumed): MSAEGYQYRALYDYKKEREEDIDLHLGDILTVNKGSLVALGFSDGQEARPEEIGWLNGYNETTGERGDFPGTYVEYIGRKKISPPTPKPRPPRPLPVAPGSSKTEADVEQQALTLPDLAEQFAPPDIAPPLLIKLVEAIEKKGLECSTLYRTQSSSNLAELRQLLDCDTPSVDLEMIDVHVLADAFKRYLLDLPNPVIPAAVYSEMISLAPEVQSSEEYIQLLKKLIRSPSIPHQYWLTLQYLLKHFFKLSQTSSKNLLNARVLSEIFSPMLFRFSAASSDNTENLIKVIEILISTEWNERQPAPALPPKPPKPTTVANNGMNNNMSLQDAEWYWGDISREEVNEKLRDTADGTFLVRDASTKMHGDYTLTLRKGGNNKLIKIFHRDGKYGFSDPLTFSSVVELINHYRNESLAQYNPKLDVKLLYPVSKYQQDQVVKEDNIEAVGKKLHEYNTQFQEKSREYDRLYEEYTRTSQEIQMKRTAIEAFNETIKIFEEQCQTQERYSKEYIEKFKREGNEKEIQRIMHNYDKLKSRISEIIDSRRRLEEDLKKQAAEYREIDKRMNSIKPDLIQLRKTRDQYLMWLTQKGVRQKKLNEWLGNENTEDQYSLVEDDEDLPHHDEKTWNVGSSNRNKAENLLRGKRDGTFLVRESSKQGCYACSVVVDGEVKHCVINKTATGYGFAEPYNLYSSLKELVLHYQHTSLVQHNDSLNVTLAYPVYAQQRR

As to `O=C1C(=Cc2c(-c3ccccc3)[nH]c3ccccc23)Oc2ccccc21` [Example 2, 2-[(2-phenyl-1H-indol-3-yl)methylene]-1-benzofuran-3(2H)-one], the IC50 is over 20000 nM at human TOR (setting [1]) and over 10000 nM at PI3K-alpha (read-out: PI3Kα Avg. IC50).

`Cc1ccc2[nH]cc(C=C3Oc4cc(O)cc(O)c4C3=O)c2c1` [Example 170, 4,6-dihydroxy-2-[(5-methyl-1H-indol-3-yl)methylene]-1-benzofuran-3(2H)-one]: the results for the IC50 at human TOR (setting [1]) and at PI3K-alpha (read-out: PI3Kα Avg. IC50) were over 20000 nM and 5770 nM, respectively.

Turning to `CN(C)c1ccc(-c2[nH]c3ccccc3c2C=C2Oc3cc(O)cc(O)c3C2=O)cc1` [Example 211, 2-({2-[4-(dimethylamino)phenyl]-1H-indol-3-yl}methylene)-4,6-dihydroxy-1-benzofuran-3(2H)-one], the concentration for half-maximal inhibition (IC50) at human TOR (setting [1]) came to 590 nM; at PI3K-alpha (read-out: PI3Kα Avg. IC50), 1060 nM.

Consider `O=C1C(=Cc2c[nH]c3cc(C(F)(F)F)ccc23)Oc2cc(O)cc(O)c21` [Example 221, 4,6-dihydroxy-2-{[6-(trifluoromethyl)-1H-indol-3-yl]methylene}-1-benzofuran-3(2H)-one], for which the IC50 on human TOR (setting [1]) was over 20000 nM; at PI3K-alpha (read-out: PI3Kα Avg. IC50) it was 1160 nM.

On to `O=C1C(=Cc2c(Br)[nH]c3ccccc23)Oc2cc(O)cc(O)c21` [Example 80, 2-[(2-bromo-1H-indol-3-yl)methylene]-4,6-dihydroxy-1-benzofuran-3(2H)-one], for which the 50% inhibitory concentration (IC50) was 490 nM on human TOR (setting [1]) and over 10000 nM at PI3K-alpha (read-out: PI3Kα Avg. IC50).

Regarding `COc1ccc2c(C=C3Oc4cc(O)cc(O)c4C3=O)c[nH]c2c1` [Example 186, 4,6-dihydroxy-2-[(6-methoxy-1H-indol-3-yl)methylene]-1-benzofuran-3(2H)-one], the results for the IC50 at human TOR (setting [1]) and on PI3K-alpha (read-out: PI3Kα Avg. IC50) were 16000 nM and 5760 nM, respectively.

On to `CN(C)CCn1cc(C=C2Oc3cc(O)cc(O)c3C2=O)c2c(C#N)cccc21` [Example 265, 3-[(4,6-dihydroxy-3-oxo-1-benzofuran-2(3H)-ylidene)methyl]-1-[2-(dimethylamino)ethyl]-1H-indole-4-carbonitrile], for which the IC50 on human TOR (setting [1]) was 1300 nM; on PI3K-alpha (read-out: PI3Kα Avg. IC50), over 10000 nM.

Consider `O=C1C(=Cc2c(-c3ccccc3)n(Cc3cccnc3)c3ccccc23)Oc2cc(O)cc(O)c21` [Example 153, 4,6-dihydroxy-2-{[2-phenyl-1-(pyridin-3-ylmethyl)-1H-indol-3-yl]methylene}-1-benzofuran-3(2H)-one], for which the IC50 at human TOR (setting [1]) worked out at 2900 nM; on PI3K-alpha (read-out: PI3Kα Avg. IC50), 1580 nM.

Take `O=C1C(=Cc2c(-c3ccccc3)n(Cc3ccncc3)c3ccccc23)Oc2cc(O)cc(O)c21` [Example 154, 4,6-dihydroxy-2-{[2-phenyl-1-(pyridin-4-ylmethyl)-1H-indol-3-yl]methylene}-1-benzofuran-3(2H)-one]: the IC50 on human TOR (setting [1]) came to 540 nM; at PI3K-alpha (read-out: PI3Kα Avg. IC50) it was 1580 nM.

Consider `O=C1/C(=C/c2c(-c3ccc(F)cc3)[nH]c3ccccc23)Oc2cc(O)cc(O)c21` [Example 46, (2Z)-2-{[2-(4-fluorophenyl)-1H-indol-3-yl]methylene}-4,6-dihydroxy-1-benzofuran-3(2H)-one], for which the IC50 stood at 123 nM on human TOR (setting [1]) and 1580 nM against PI3K-alpha (PI3Kα Avg. IC50).

On to `Cn1cc(C=C2Oc3cc(O)cc(O)c3C2=O)c2ccc(C(F)(F)F)cc21` [Example 237, 4,6-dihydroxy-2-{[1-methyl-6-(trifluoromethyl)-1H-indol-3-yl]methylene}-1-benzofuran-3(2H)-one], for which the IC50 was over 20000 nM on human TOR (setting [1]) and 2480 nM at PI3K-alpha (read-out: PI3Kα Avg. IC50).

With `Cc1[nH]c2ccc([N+](=O)[O-])cc2c1C=C1Oc2cc(O)cc(O)c2C1=O` [Example 162, 4,6-dihydroxy-2-[(2-methyl-5-nitro-1H-indol-3-yl)methylene]-1-benzofuran-3(2H)-one], the results for the IC50 on human TOR (setting [1]) and on PI3K-alpha (read-out: PI3Kα Avg. IC50) were over 20000 nM and 2450 nM, respectively.

In the case of `COc1cccc(-c2[nH]c3ccccc3c2C=C2Oc3cc(O)cc(O)c3C2=O)c1` [Example 209, 4,6-dihydroxy-2-{[2-(3-methoxyphenyl)-1H-indol-3-yl]methylene}-1-benzofuran-3(2H)-one], the IC50 amounted to 490 nM on human TOR (setting [1]) and 1160 nM at PI3K-alpha (read-out: PI3Kα Avg. IC50).

As to `Cc1cccc2c(/C=C3\Oc4cc(O)cc(O)c4C3=O)c[nH]c12` [Example 49, (2Z)-4,6-dihydroxy-2-[(7-methyl-1H-indol-3-yl)methylene]-1-benzofuran-3(2H)-one], the IC50 was over 5000 nM at human TOR (setting [1]) and 2430 nM at PI3K-alpha (read-out: PI3Kα Avg. IC50).

In the case of `O=C1C(=Cc2c[nH]c3ccc(Br)cc23)Oc2cccc(O)c21` [Example 77, 2-[(5-bromo-1H-indol-3-yl)methylene]-4-hydroxy-1-benzofuran-3(2H)-one], the concentration for half-maximal inhibition (IC50) at human TOR (setting [1]) is 17500 nM; on PI3K-alpha (read-out: PI3Kα Avg. IC50), over 10000 nM.

Turning to `O=C1C(=Cc2c[nH]c3ccccc23)Oc2cccc(O)c21` [Example 74, 4-hydroxy-2-(1H-indol-3-ylmethylene)-1-benzofuran-3(2H)-one], the IC50 amounted to 9800 nM on human TOR (setting [1]) and 12000 nM on PI3K-alpha (read-out: PI3Kα Avg. IC50).

On to `Cn1c(-c2ccccc2)c(C=C2Oc3ccccc3C2=O)c2ccccc21` [Example 3, 2-[(1-methyl-2-phenyl-1H-indol-3-yl)methylene]-1-benzofuran-3(2H)-one], for which the IC50 is over 20000 nM at human TOR (setting [1]) and over 10000 nM on PI3K-alpha (read-out: PI3Kα Avg. IC50).

Consider `N#CCCCn1cc(C=C2Oc3cc(O)cc(O)c3C2=O)c2ccccc21` [Example 241, 4-{3-[(4,6-dihydroxy-3-oxo-1-benzofuran-2(3H)-ylidene)methyl]-1H-indol-1-yl}butanenitrile], for which the results for the IC50 on human TOR (setting [1]) and at PI3K-alpha (read-out: PI3Kα Avg. IC50) were over 20000 nM and 4710 nM, respectively.

As for `O=C1C(=Cc2c[nH]c3ccc([N+](=O)[O-])cc23)Oc2cc(O)cc(O)c21` [Example 178, 4,6-dihydroxy-2-[(5-nitro-1H-indol-3-yl)methylene]-1-benzofuran-3(2H)-one], the IC50 on human TOR (setting [1]) is 12500 nM; at PI3K-alpha (read-out: PI3Kα Avg. IC50), 1470 nM.

On to `O=C1C(=Cc2c[nH]c3ccccc23)Oc2cc(O)cc(O)c21` [Example 13, 4,6-dihydroxy-2-(1H-indol-3-ylmethylene)-1-benzofuran-3(2H)-one], for which the IC50 against human TOR (mTOR Kinase Avg. IC50) came out at 9200 nM; on PI3K-alpha (PI3Kα Avg. IC50), 6750 nM.

As for `Cn1cc(C=C2Oc3cc(O)ccc3C2=O)c2ccccc21` [Example 8, 6-hydroxy-2-[(1-methyl-1H-indol-3-yl)methylene]-1-benzofuran-3(2H)-one], the IC50 is over 20000 nM on human TOR (setting [1]) and over 10000 nM on PI3K-alpha (read-out: PI3Kα Avg. IC50).

As to `Cc1c(C=C2Oc3cc(O)cc(O)c3C2=O)c2cc(Cl)ccc2n1C` [Example 233, 2-[(5-chloro-1,2-dimethyl-1H-indol-3-yl)methylene]-4,6-dihydroxy-1-benzofuran-3(2H)-one], the half-maximal inhibitory concentration (IC50) is 850 nM on human TOR (setting [1]) and 2040 nM on PI3K-alpha (read-out: PI3Kα Avg. IC50).

With `O=C1C(=Cc2c[nH]c3cc([N+](=O)[O-])ccc23)Oc2cc(O)cc(O)c21` [Example 179, 4,6-dihydroxy-2-[(6-nitro-1H-indol-3-yl)methylene]-1-benzofuran-3(2H)-one], the IC50 on human TOR (setting [1]) is 16000 nM; at PI3K-alpha (read-out: PI3Kα Avg. IC50), 2470 nM.

As for `CS(=O)(=O)c1ccc2c(C=C3Oc4cc(O)cc(O)c4C3=O)c[nH]c2c1` [Example 169, 4,6-dihydroxy-2-{[6-(methylsulfonyl)-1H-indol-3-yl]methylene}-1-benzofuran-3(2H)-one], the figures for the IC50 on human TOR (setting [1]) and at PI3K-alpha (read-out: PI3Kα Avg. IC50) were 9100 nM and 3590 nM, respectively.

For `O=C1C(=Cc2c(-c3ccccn3)[nH]c3ccccc23)Oc2cc(O)cc(O)c21` [Example 72, 4,6-dihydroxy-2-[(2-pyridin-2-yl-1H-indol-3-yl)methylene]-1-benzofuran-3(2H)-one], the IC50 came to 21.2 nM on human TOR (mTOR Kinase Avg. IC50) and 3650 nM against PI3K-alpha (PI3Kα Avg. IC50).

With `CNC(=O)Nc1ccc2c(c1)C(=O)/C(=C/c1c(C3CCCCC3)n(CCN3CCN(C)CC3)c3ccc(OC)cc13)O2` [Compound 533, 1-[(2Z)-2-({2-cyclohexyl-5-methoxy-1-[2-(4-methylpiperazin-1-yl)ethyl]-1H-indol-3-yl}methylene)-3-oxo-2,3-dihydro-1-benzofuran-5-yl]-3-methylurea], the concentration for half-maximal inhibition (IC50) was 2.2 nM at PI3K-alpha (read-out: PI3Kα Avg. IC50) and 389 nM against PI3K-gamma.

On to `CCCCNC(=O)Nc1ccc2c(c1)C(=O)/C(=C/c1c[nH]c3ccc(OC)cc13)O2` [Compound 487, 1-butyl-3-{(2Z)-2-[(5-methoxy-1H-indol-3-yl)methylene]-3-oxo-2,3-dihydro-1-benzofuran-5-yl}urea], for which the IC50 on PI3K-alpha (read-out: PI3Kα Avg. IC50) is 10200 nM; against PI3K-gamma, over 10000 nM.

For `COc1cc(-c2ccncc2)c2[nH]cc(/C=C3\Oc4cc(O)ccc4C3=O)c2c1` [Compound 479, (2Z)-6-hydroxy-2-[(5-methoxy-7-pyridin-4-yl-1H-indol-3-yl)methylene]-1-benzofuran-3(2H)-one], the 50% inhibitory concentration (IC50) on PI3K-alpha (read-out: PI3Kα Avg. IC50) is 298 nM; on PI3K-gamma it was over 10000 nM.

For the compound `CNC(=O)Nc1ccc2c(c1)C(=O)/C(=C/c1c(-c3nc(C(C)C)no3)[nH]c3ccc(OC)cc13)O2` [Compound 591, 1-[(2Z)-2-{[2-(3-isopropyl-1,2,4-oxadiazol-5-yl)-5-methoxy-1H-indol-3-yl]methylene}-3-oxo-2,3-dihydro-1-benzofuran-5-yl]-3-methylurea], the IC50 on PI3K-alpha (read-out: PI3Kα Avg. IC50) worked out at 8 nM; against PI3K-gamma, 9500 nM.

For the compound `COc1cc(/C=C/CN2CCCCC2)c2[nH]cc(/C=C3\Oc4cc(O)ccc4C3=O)c2c1` [Compound 555, (2Z)-6-hydroxy-2-({5-methoxy-7-[(1E)-3-piperidin-1-ylprop-1-en-1-yl]-1H-indol-3-yl}methylene)-1-benzofuran-3(2H)-one], the IC50 at PI3K-alpha (read-out: PI3Kα Avg. IC50) worked out at 48 nM; against PI3K-gamma, 1890 nM.

As for `O=C1/C(=C/c2cn(CCO)c3cccc(-c4ccccc4)c23)Oc2cc(O)cc(O)c21` [Compound 478, (2Z)-4,6-dihydroxy-2-{[1-(2-hydroxyethyl)-4-phenyl-1H-indol-3-yl]methylene}-1-benzofuran-3(2H)-one], the concentration for half-maximal inhibition (IC50) on PI3K-alpha (read-out: PI3Kα Avg. IC50) turned out to be 1200 nM; on PI3K-gamma it was 1740 nM.

(Values after US20090311217A1, “3-SUBSTITUTED-1H-INDOLE COMPOUNDS, THEIR USE AS MTOR KINASE AND PI3 KINASE INHIBITORS, AND THEIR SYNTHESES” (priority 2008, published 2009).)
